Reference: ChEMBL document CHEMBL4130390, “Crystal structure of Porphyromonas gingivalis dipeptidyl peptidase 4 and structure-activity relationships based on inhibitor profiling” (Eur J Med Chem, 2017)
Activity calls are given as the source filed them. The calls are words filed in the database; no cut-off is given here.

Assays:
[1] = biological target: Dipeptidyl peptidase IV (Porphyromonas gingivalis) (UniProt O31048); test: Inhibition of Porphyromonas gingivalis N-terminal His-tagged DPP4 expressed in Escherichia coli at 10 uM using Gly-Pro-p-nitroanilide as substrate relative to control
[2] = biological target: Dipeptidyl peptidase IV (Porphyromonas gingivalis) (UniProt O31048); test: Inhibition of Porphyromonas gingivalis N-terminal His-tagged DPP4 expressed in Escherichia coli at 100 uM using Gly-Pro-p-nitroanilide as substrate relative to control
Dipeptidyl peptidase IV [3] = biological target: T1, Dipeptidyl peptidase IV (Porphyromonas gingivalis, UniProt O31048); test: Inhibition of Porphyromonas gingivalis N-terminal His-tagged DPP4 expressed in Escherichia coli using Gly-Pro-p-nitroanilide as substrate
Dipeptidyl peptidase 9 = Dipeptidyl peptidase 9 (Bos taurus, UniProt E1BI31); test: Inhibition of bovine DPP9
[4] = Selectivity index, ratio of IC50 for human DPP4 to IC50 for Porphyromonas gingivalis N-terminal His-tagged DPP4 expressed in Escherichia coli
[5] = biological target: Dipeptidyl peptidase IV (Porphyromonas gingivalis) (UniProt O31048); test: Inhibition of Porphyromonas gingivalis N-terminal His-tagged DPP4 expressed in Escherichia coli using Gly-Pro-p-nitroanilide as substrate after 1 hr
Dipeptidyl peptidase IV [6] = biological target: T1, Dipeptidyl peptidase IV; test: Inhibition of Porphyromonas gingivalis N-terminal His-tagged DPP4 expressed in Escherichia coli using Gly-Pro-p-nitroanilide as substrate preincubated for 15 mins

Dipeptidyl peptidase IV (Porphyromonas gingivalis), sequence (O31048 20-723 limits assumed): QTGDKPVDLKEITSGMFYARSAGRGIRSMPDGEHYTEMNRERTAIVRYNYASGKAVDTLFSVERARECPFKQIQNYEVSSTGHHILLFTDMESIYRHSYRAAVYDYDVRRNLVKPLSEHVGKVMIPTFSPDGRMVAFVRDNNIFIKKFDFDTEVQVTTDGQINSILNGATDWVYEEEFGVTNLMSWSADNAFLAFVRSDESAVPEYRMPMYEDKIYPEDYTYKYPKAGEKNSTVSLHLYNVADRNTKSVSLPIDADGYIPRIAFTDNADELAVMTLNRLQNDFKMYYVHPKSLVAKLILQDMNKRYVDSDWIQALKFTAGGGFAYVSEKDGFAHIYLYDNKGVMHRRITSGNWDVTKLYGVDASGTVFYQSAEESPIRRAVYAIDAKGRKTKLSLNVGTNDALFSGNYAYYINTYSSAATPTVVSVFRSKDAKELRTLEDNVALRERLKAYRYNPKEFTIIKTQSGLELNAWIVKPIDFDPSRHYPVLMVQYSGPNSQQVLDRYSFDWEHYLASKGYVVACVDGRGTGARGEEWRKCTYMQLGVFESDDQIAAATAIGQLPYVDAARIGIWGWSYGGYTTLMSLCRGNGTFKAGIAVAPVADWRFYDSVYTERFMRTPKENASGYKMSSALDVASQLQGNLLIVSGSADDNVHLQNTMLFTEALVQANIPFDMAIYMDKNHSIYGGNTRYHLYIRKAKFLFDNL
T1 sequence (O31048 20-723 limits assumed): as above
Dipeptidyl peptidase 9, sequence (E1BI31 whole entry): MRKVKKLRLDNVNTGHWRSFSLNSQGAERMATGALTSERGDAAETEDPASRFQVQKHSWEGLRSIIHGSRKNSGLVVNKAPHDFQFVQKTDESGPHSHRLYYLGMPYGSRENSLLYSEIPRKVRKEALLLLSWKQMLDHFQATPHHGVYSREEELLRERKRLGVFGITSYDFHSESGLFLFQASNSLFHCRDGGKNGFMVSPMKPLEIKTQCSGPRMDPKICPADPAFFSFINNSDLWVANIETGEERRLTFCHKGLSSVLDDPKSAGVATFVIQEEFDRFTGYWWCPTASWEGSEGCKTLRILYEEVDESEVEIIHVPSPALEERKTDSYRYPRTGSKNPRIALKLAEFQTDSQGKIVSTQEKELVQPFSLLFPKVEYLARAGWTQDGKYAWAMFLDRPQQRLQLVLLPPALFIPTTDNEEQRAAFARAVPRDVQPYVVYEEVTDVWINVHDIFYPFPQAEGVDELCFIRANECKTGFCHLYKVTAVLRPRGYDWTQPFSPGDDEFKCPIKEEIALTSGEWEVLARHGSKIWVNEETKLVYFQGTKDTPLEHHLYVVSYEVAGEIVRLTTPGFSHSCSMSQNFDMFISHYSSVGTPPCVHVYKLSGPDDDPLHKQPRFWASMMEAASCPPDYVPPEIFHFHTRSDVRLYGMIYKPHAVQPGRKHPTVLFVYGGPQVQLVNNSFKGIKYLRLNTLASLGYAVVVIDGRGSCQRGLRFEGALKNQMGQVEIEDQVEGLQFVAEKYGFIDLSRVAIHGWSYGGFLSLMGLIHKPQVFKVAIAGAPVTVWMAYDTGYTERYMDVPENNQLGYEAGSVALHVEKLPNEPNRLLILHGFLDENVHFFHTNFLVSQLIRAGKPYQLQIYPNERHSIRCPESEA

Structure (SMILES)	inhibition [1] [%]	inhibition [2] [%]	IC50 (Dipeptidyl peptidase IV [3])	IC50 (Dipeptidyl peptidase 9) [µM]	IC50 (Dipeptidyl peptidase IV [3]; read-out: IC50) [µM]	Ratio IC50 [4]	inhibition [5]	Ki (Dipeptidyl peptidase IV [6]) [µM]
CC#CCn1c(N2CCC[C@@H](N)C2)nc2c1c(=O)n(Cc1nc(C)c3ccccc3n1)c(=O)n2C [LINAGLIPTIN]	> 50	< 50	IC50 10-100 uM	> 100	–	–	–	–
N#C[C@@H]1C[C@H](N=[N+]=[N-])CN1C(=O)[C@@H](N)CCCCNC(=O)OCc1ccccc1	> 50	< 50	–	–	0.3	1.76 to 1.8	Active	–
N#C[C@@H]1C[C@H](N=[N+]=[N-])CN1C(=O)[C@@H](N)CCCCNCc1ccc2ccccc2c1	> 50	< 50	–	–	0.079	7.04 to 7.1	Active	–
NCCCCC(N)C(=O)N1CCSC1 (configuration not stated)	> 50	< 50	–	–	19	0.09	–	–
N[C@@H](CCNCc1ccc(Cl)cc1)C(=O)N1CCCCC1	> 50	–	–	76.6	> 100	–	–	–
CC[C@@H](C)[C@H](N)C(=O)N1C[C@@H](N=[N+]=[N-])C[C@H]1C#N	> 50	< 50	–	–	0.23	1.26 to 1.3	Active	–
N#C[C@@H]1CCCN1C(=O)CNC12CC3CC(CC(O)(C3)C1)C2 [VILDAGLIPTIN]	> 50	–	–	–	1.3	–	Active	0.017
NC(CCCCNCc1ccccc1)C(=O)N1CCCC1 (configuration not stated)	> 50	< 50	–	–	3.1	1.2	–	–
NC(CCCCN(Cc1ccc2ccccc2c1)Cc1ccc2ccccc2c1)C(=O)N1CCCC1 (configuration not stated)	> 50	< 50	–	–	3.5	1.2	–	–
N[C@@H](CCCCNC(=O)OCc1ccccc1)C(=O)N1CCCC1	> 50	< 50	–	–	22	0.7 to 0.71	–	–
